Structures are written as SMILES.

Among the data in US9725468B2, “C5-spiro iminothiazine dioxides as BACE inhibitors, compositions, and their use” (Merck Sharp & Dohme Corp., priority 2013, dated 2017) are Ki values, retold here.

For assay [1], the target named is soluble human BACE1 catalytic domain (Homo sapiens, UniProt P56817). As to the kind of experiment: BACE1 HTRF FRET Assay. Format: biochemical. The note with it: Ki calculated from IC50 using the Cheng-Prusoff equation; QSY7-APPswe-Eu substrate 200 nM, pH 5.0. An excerpt: Na^+-Acetate pH 5.0; 1% Brij-35; Glycerol; Dimethyl Sulfoxide (DMSO); Recombinant human soluble BACE1 catalytic domain (>95% pure); APP Swedish mutant peptide substrate (QSY7-APP^swe-Eu): QSY7-EISEVNLDAEFC-Europium-amide.
A homogeneous time-resolved FRET assay can be used to determine IC50 values for inhibitors of the soluble human BACE1 catalytic domain. This assay monitors the increase of 620 nm fluorescence that resulted from BACE1 cleavage of an APPswedish APP^swe mutant peptide FRET substrate (QSY7-EISEVNLDAEFC-Europium-amide). This substrate contains an N-terminal QSY7 moiety that serves as a quencher of the C-terminal Europium fluorophore (620 nm Em). In the absence of enzyme activity, 620 nm fluorescence is low in the assay and increased linearly over 3 hours in the presence of uninhibited BACE1 enzyme. Inhibition of BACE1 cleavage of the QSY7-APP^swe-Eu substrate by inhibitors is manifested as a suppression of 620 nm fluorescence.
Varying concentrations of inhibitors at 3× the final desired concentration in a volume of 10 ul are preincubated with purified human BACE1 catalytic domain (3 nM in 10 μl) for 30 minutes at 30° C. in reaction buffer containing 20 mM Na-Acetate pH 5.0, 10% glycerol, 0.1% Brij-35 and 7.5% DSMO. Reactions are initiated by addition of 10 μl of 600 nM QSY7-APP^swe-Eu substrate (200 nM final) to give a final reaction volume of 30 μl in a 384 well Nunc HTRF plate. The reactions are incubated at 30° C. for 1.5 hours. The 620 nm fluorescence is then read on a Rubystar HTRF plate reader (BMG Labtechnologies) using a 50 millisecond delay followed by a 400 millisecond acquisition time window. Inhibitor IC50 values are derived from non-linear regression analysis of concentration response curves. Ki values are then calculated from IC50 values using the Cheng-Prusoff equation using a previously determined […] for the QSY7-APP^swe-Eu substrate at BACE1.

For assay [2], the target named is T1, purified human autoBACE-2 (Homo sapiens, UniProt Q9Y5Z0).
T1 sequence (Q9Y5Z0 63-473 limits assumed): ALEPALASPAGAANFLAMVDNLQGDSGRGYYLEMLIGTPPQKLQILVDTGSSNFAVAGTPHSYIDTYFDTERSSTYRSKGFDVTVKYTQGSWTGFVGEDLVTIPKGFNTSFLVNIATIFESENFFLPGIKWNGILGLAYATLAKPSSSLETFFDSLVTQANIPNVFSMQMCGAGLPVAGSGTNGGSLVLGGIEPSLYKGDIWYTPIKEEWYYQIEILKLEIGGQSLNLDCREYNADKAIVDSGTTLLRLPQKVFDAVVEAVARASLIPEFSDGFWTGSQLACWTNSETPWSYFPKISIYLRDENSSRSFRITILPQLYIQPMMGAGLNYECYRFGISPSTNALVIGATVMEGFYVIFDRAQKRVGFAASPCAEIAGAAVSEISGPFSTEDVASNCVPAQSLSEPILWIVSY
Briefly: BACE-2 Assay (BACE-HTRF assay). The format is biochemical. The conditions noted are these: Ki calculated from IC50 using the Cheng-Prusoff equation; QSY7-EISEVNLDAEFC-Eu-amide substrate 200 nM, pH 5.0; read-out: BACE2 Ki. The procedure:
Inhibitor ICsos at purified human autoBACE-2 are determined in a time-resolved endpoint proteolysis assay that measures hydrolysis of the QSY7-EISEVNLDAEFC-Eu-amide FRET peptide substrate (BACE-HTRF assay). BACE-mediated hydrolysis of this peptide results in an increase in relative fluorescence (RFU) at 620 nm after excitation with 320 nm light. Inhibitor compounds, prepared at 3× the desired final concentration in 1×BACE assay buffer (20 mM sodium acetate pH 5.0, 10% glycerol, 0.1% Brij-35) supplemented with 7.5% DMSO are preincubated with an equal volume of autoBACE-2 enzyme diluted in 1×BACE assay buffer (final enzyme concentration 1 nM) in black 384-well NUNC plates for 30 minutes at 30° C. The assay is initiated by addition of an equal volume of the QSY7-EISEVNLDAEFC-Eu-amide substrate (200 nM final concentration, […]) prepared in 1×BACE assay buffer supplemented with 7.5% DMSO and incubated for 90 minutes at 30° C. DMSO is present at 5% final concentration in the assay. Following laser excitation of sample wells at 320 nm, the fluorescence signal at 620 nm is collected for 400 ms following a 50 μs delay on a RUBYstar HTRF plate reader (BMG Labtechnologies). Raw RFU data is normalized to maximum (1.0 nM BACE/DMSO) and minimum (no enzyme/DMSO) RFU values. IC50s are determined by nonlinear regression analysis (sigmoidal dose response, variable slope) of percent inhibition data with minimum and maximum values set to 0 and 100 percent respectively. Similar IC50s are obtained when using raw RFU data. The Ki values are calculated from the IC50 using the Cheng-Prusoff equation.

Chain of soluble human BACE1 catalytic domain (P56817 75-416 limits assumed): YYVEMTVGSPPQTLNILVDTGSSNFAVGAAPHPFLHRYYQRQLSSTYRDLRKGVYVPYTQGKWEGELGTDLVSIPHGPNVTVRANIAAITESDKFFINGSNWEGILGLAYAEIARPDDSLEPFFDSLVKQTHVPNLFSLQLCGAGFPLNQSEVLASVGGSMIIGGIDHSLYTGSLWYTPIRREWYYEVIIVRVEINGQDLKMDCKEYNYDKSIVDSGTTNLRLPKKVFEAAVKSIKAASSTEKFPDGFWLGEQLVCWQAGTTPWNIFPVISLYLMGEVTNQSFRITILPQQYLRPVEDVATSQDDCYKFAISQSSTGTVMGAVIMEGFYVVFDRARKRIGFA

As to `CC1(C)C(=N)N[C@@]2(COCc3ccc(NC(=O)c4ccn(C(F)F)n4)cc32)CS1(=O)=O` [Example E-7], the Ki – broadly, the equilibrium dissociation constant of an inhibitor or competing ligand from its target – was 12 nM in assay [1] and 2 nM in assay [2].
As to `Cc1nc(C(=O)Nc2ccc3c(c2)[C@]2(COC3)CS(=O)(=O)C(C)(C)C(=N)N2)no1` [Example E-8], the Ki in assay [1] was 281 nM; in assay [2], 12 nM.
With `CC1(C)C(=N)N[C@@]2(COCc3ccc(NC(=O)c4cnsn4)cc32)CS1(=O)=O` [Example E-9], the values for the Ki in assay [1] and in assay [2] were 171 nM and 23 nM, respectively.
In the same order, the values of `COc1ccc(C(=O)Nc2ccc3c(c2)[C@]2(COC3)CS(=O)(=O)C(C)(C)C(=N)N2)nc1` [Example E-10] are 118 nM and 29 nM.
The like results for `COc1cnc(C(=O)Nc2ccc3c(c2)[C@]2(COC3)CS(=O)(=O)C(C)(C)C(=N)N2)c(C)c1` [Example E-11] were, in that order, 59 nM and 5 nM.
In the same order, the values of `CC1(C)C(=N)N[C@@]2(COCc3ccc(NC(=O)c4cn5cc(C#N)ccc5n4)cc32)CS1(=O)=O` [Example E-12] are 556 nM and 2950 nM.
On to `CC1(C)C(=N)N[C@@]2(COCc3ccc(NC(=O)c4ccc(F)cn4)cc32)CS1(=O)=O` [Example E-13], for which the Ki in assay [1] was 127 nM; in assay [2] it was 17 nM.
The like results for `CC1(C)C(=N)N[C@@]2(COCc3ccc(NC(=O)c4ccc(C#N)cn4)cc32)CS1(=O)=O` [Example E-14] were, in that order, 11 nM and 35 nM.
Regarding `CC1(C)C(=N)N[C@@]2(COCc3ccc(NC(=O)c4ncc(Cl)cc4F)cc32)CS1(=O)=O` [Example E-15], the Ki is 37 nM in assay [1] and 5 nM in assay [2].
In the same order, the values of `CC1(C)C(=N)N[C@@]2(COCc3ccc(NC(=O)c4cnc(OCC(F)(F)F)cn4)cc32)CS1(=O)=O` [Example E-16] are 101 nM and 402 nM.
`CC1(C)C(=N)N[C@@]2(COCc3ccc(NC(=O)c4cnc(OCCF)cn4)cc32)CS1(=O)=O` [Example E-17]: the Ki in assay [1] was 326 nM; in assay [2], 443 nM.
With `CC1(C)C(=N)N[C@@]2(COCc3ccc(NC(=O)c4ccc(OC(F)F)cn4)cc32)CS1(=O)=O` [Example E-18], the Ki was 34 nM in assay [1] and 76 nM in assay [2].
With `C#CCOc1ccc(C(=O)Nc2ccc3c(c2)[C@]2(COC3)CS(=O)(=O)C(C)(C)C(=N)N2)nc1` [Example E-19], the Ki in assay [1] is 30 nM; in assay [2] it was 185 nM.
In the case of `COc1cnc(C(=O)Nc2ccc3c(c2)[C@]2(COC3)CS(=O)(=O)C(C)(C)C(=N)N2)c(C)n1` [Example E-20], the values for the Ki in assay [1] and in assay [2] were 218 nM and 60 nM, respectively.
In the same order, the values of `CC1(C)C(=N)N[C@@]2(COCc3ccc(NC(=O)c4cnc(C(F)(F)F)cn4)cc32)CS1(=O)=O` [Example E-21] are 231 nM and 583 nM.
The like results for `COc1cnc(C(=O)Nc2ccc3c(c2)[C@]2(COC3)CS(=O)(=O)C(C)(C)C(=N)N2)cn1` [Example E-22] were, in that order, 334 nM and 187 nM.
On to `Cc1nc(C(=O)Nc2ccc3c(c2)[C@]2(COC3)CS(=O)(=O)C(C)(C)C(=N)N2)co1` [Example E-23], for which the Ki was 66 nM in assay [1] and 7 nM in assay [2].
The like results for `CC1(C)C(=N)N[C@@]2(COCc3ccc(NC(=O)c4ccc(OCF)cn4)cc32)CS1(=O)=O` [Example E-24] were, in that order, 57 nM and 13 nM.
For `CC1(C)C(=N)N[C@@]2(CCCc3ccc(NC(=O)c4ccc(Cl)cn4)cc32)CS1(=O)=O` [Example F-1], the Ki in assay [1] is 11 nM; in assay [2], 3 nM.
Consider `CC1(C)C(=N)N[C@@]2(CCCc3ccc(NC(=O)c4ncc(Cl)cc4F)cc32)CS1(=O)=O` [Example G-1], for which the Ki is 11 nM in assay [1] and 2 nM in assay [2].
In the same order, the values of `CC1(C)C(=N)N[C@@]2(CCCc3ccc(NC(=O)c4cnsn4)cc32)CS1(=O)=O` [Example G-2] are 35 nM and 7 nM.
The like results for `CC1(C)C(=N)N[C@@]2(CCCc3ccc(NC(=O)c4cc5ccccn5n4)cc32)CS1(=O)=O` [Example G-3] were, in that order, 503 nM and 74 nM.
The like results for `CC1(C)C(=N)N[C@@]2(CCCc3ccc(NC(=O)c4ccn(C(F)F)n4)cc32)CS1(=O)=O` [Example G-4] were, in that order, 4 nM and 1 nM.
In the case of `C#CCOc1cnc(C(=O)Nc2ccc3c(c2)[C@]2(CCC3)CS(=O)(=O)C(C)(C)C(=N)N2)cn1` [Example G-5], the Ki was 7 nM in assay [1] and 20 nM in assay [2].
In the same order, the values of `Cn1cc(Cl)c(C(=O)Nc2ccc3c(c2)[C@]2(CCC3)CS(=O)(=O)C(C)(C)C(=N)N2)n1` [Example G-6] are 17 nM and 1 nM.
Consider `C#CCOc1ccc(C(=O)Nc2ccc3c(c2)[C@]2(CCC3)CS(=O)(=O)C(C)(C)C(=N)N2)nc1` [Example G-7], for which the Ki in assay [1] was 10 nM; in assay [2], 51 nM.
For the compound `COc1cnc(C(=O)Nc2ccc3c(c2)[C@]2(CCC3)CS(=O)(=O)C(C)(C)C(=N)N2)c(C)c1` [Example G-8], the Ki is 19 nM in assay [1] and 2 nM in assay [2].
In the same order, the values of `COc1cnc(C(=O)Nc2ccc3c(c2)[C@]2(CCC3)CS(=O)(=O)C(C)(C)C(=N)N2)c(C)n1` [Example G-9] are 64 nM and 17 nM.
In the same order, the values of `Cc1cc(C#N)cnc1C(=O)Nc1ccc2c(c1)[C@]1(CCC2)CS(=O)(=O)C(C)(C)C(=N)N1` [Example G-10] are 2 nM and 3 nM.
As to `COc1cnc(C(=O)Nc2ccc3c(c2)[C@]2(CCC3)CS(=O)(=O)C(C)(C)C(=N)N2)cn1` [Example G-11], the values for the Ki in assay [1] and in assay [2] were 92 nM and 57 nM, respectively.
The like results for `CC1(C)C(=N)N[C@@]2(CCCc3ccc(NC(=O)c4cnc(C(F)(F)F)cn4)cc32)CS1(=O)=O` [Example G-12] were, in that order, 57 nM and 163 nM.
The like results for `Cc1nc(C(=O)Nc2ccc3c(c2)[C@]2(CCC3)CS(=O)(=O)C(C)(C)C(=N)N2)no1` [Example G-13] were, in that order, 83 nM and 6 nM.
In the same order, the values of `CC1(C)C(=N)N[C@@]2(CCCc3ccc(NC(=O)c4ccc(F)cn4)cc32)CS1(=O)=O` [Example G-14] are 55 nM and 7 nM.
With `CC1(C)C(=N)N[C@@]2(CCCc3ccc(NC(=O)c4ccc(OC(F)F)cn4)cc32)CS1(=O)=O` [Example G-15], the Ki in assay [1] was 12 nM; in assay [2] it was 22 nM.
The like results for `CC1(C)C(=N)N[C@@]2(CCCc3ccc(NC(=O)c4ccc(OC(F)(F)F)cn4)cc32)CS1(=O)=O` [Example G-16] were, in that order, 13 nM and 51 nM.
